{"source": "patent US20070275091A1", "about": "“Compositions And Methods For Improved Mucus Function” (priority 2004, published 2007)", "key": {"[1]": {"test_system": "frog palate mucociliary clearance", "assay": "Frog palate mucociliary transport, agent applied topically", "design": "species or system Rana catesbiana", "description": "(§1) The displacement of a 1-5 μL of endogenous frog mucus sample is timed as the trailing edge moves across a predetermined segment. MTV is calculated by dividing the distance traveled by the time elapsed, based on at least five measurements of the time required for the mucus sample to travel the defined distance (3).\nIn FIG. 4A, the effect of a mucomodulating agent (CaCl2) on mucociliary transport time is shown compared to Frog Ringers (FR) solution. Both solutions (FR and CaCl2) were applied topically to the palate in a volume of 5 μL. Thirty seconds were allowed for dispersion of the agent on the palate, followed by the measurement of mucociliary transport time. A droplet of mucus from the palate was placed on palate toward the mouth opening. Ciliary action transported the droplet down the palate. The measurement process (timing the movement of the droplet down the palate over a set distance of 4 mm as observed through a stereomicroscope with a reticulated eyepiece) was repeated five times and averaged to give a mean transport time for each solution.\nAs described above, mucomodulator solutions were applied topically to the palate in a volume of 5 μl. After 30 seconds to allow dispersion of the agent on the palate, measurements of mucociliary transport time were taken. None of the agents tested on the frog palate had any significant effect on mucociliary clearance until the highest delivered concentrations. Variations at low concentrations were due to variations in baseline frog palate mucociliary activity."}, "[2]": {"test_system": "tracheal mucociliary clearance", "assay": "Tracheal mucus velocity in anesthetized dogs", "type": "in vivo", "conditions": "for TMV: 7 mL over 20 min, jet nebulizer; for thread formation capability (a measure of elasticity) of the tracheal mucus: after aerosol exposure, not in sham or saline", "description": "The mucomodulator aerosols were delivered to the intubated, spontaneously breathing dogs by jet nebulizer aerosol (7 mL over 20 min). Three aerosol concentrations were delivered: Low=0.001M; Med 0.01M; High=0.1M.\nThe following was assessed: cardio-respiratory pattern, tracheal mucus clearance, airway patency, and mucus viscoelasticity changes."}, "[3]": {"assay": "Simulated cough machine, expectoration of mucus simulant", "text": "The simulated cough machine system comprises the following elements: A 10-L tank with compressed air, which serves as a pressure reservoir that generates airflow, simulating the lungs during a cough maneuver. The pressure generated prior to a normal adult cough is approximately 8 psi pressure. This pressure value was used to simulate the airflow pattern of a human cough for each trial.\nThe model “trachea” is a 28 cm long rigid acrylic tube with a circular 2.5 cm cross-section. It has an 8 cm removable portion to allow us to measure the weight of the sample of mucus simulant loaded before and immediately after each “cough” maneuver. A solenoid valve located between the pressure reservoir and the model trachea control the gas released from the tank.\nAn aliquot of sputum or mucus simulant is layered on the bottom of the model trachea and driven forward by the pressurized gas. […] Displacement of the MS sample loaded, expressed in millimeters, is measured from the initial placement to the farthest point with a visible bulk concentration of mucus. […]\nMucus simulants (MS) were exposed to airflow in a simulated cough machine (SCM). […] Mucociliary clearance of the MS was assessed on the frog palate (FIG. 5A), elasticity in the Filancemeter (FIG. 6A) and the aerosol pattern in a “bulls-eye” target (FIG. 6B). […]"}, "[4]": {"assay": "Filancemeter spinnability of mucus simulant", "type": "physicochemical", "conditions": "model studies using vegetable polysaccharides", "description": "(§2) Mucus simulants (MS) were exposed to airflow in a simulated cough machine (SCM). The MS ranged from non-viscous, non-elastic substances (water—control) to MS of varying degrees of viscosity and elasticity. Mucin crosslinking was increased by adding sodium tetraborate (mucomodulator B) to viscous solutions of locust bean gum (Sigma). Mucociliary clearance of the MS was assessed on the frog palate (FIG. 5A), elasticity in the Filancemeter (FIG. 6A) and the aerosol pattern in a “bulls-eye” target (FIG. 6B). The sample loaded was weighed before and after each cough maneuver to achieve a measure of expectoration (FIG. 5B)."}, "[5]": {"test_system": "frog palate epithelial model", "assay": "Mucociliary clearance of borate-treated mucus simulant on frog palate", "design": "species or system Rana catesbiana", "conditions": "control native frog palate mucus 24 mm/min", "description": "as §1, §2"}, "[6]": {"assay": "Aerosol pattern on bulls-eye target, simulated cough machine", "conditions": "increasing amounts added, 1.5 μL to 150 μL", "description": "as §2"}, "[7]": {"test_system": "mucus from the frog palate", "conditions": "5 μL of 0.1 M solution applied topically", "source_text": "From a bullfrog, Rana catesbiana, the upper portion of the head is removed modifying the procedures described in previous works. This is done by pithing the frog after lowering the body temperature to abolish pain sensation, and then cutting with scissors through from the junction of the posterior pharynx and esophagus out to the skin of the back. The palate is checked for macroscopic lesions, such as ulcers, or evidence of inflammation. The palate is then placed inside the frog chamber, a wooden box with a glass top and fitted glass front and manipulated through glove openings, and viewed under a dissecting stereomicroscope provided with a reticulated eyepiece. Humidity inside the box is maintained at 100% using a Pari nebulizer; the box is maintained at room temperature (22° to 24° C.). Before carrying out any measurement, the palate is allowed to stabilize inside the box for 15 minutes.\nSamples of mucus and tissue are placed in 2.5% glutaraldehyde solution immediately after collection and stored at 4° C. until processing. Briefly, the samples are post-fixed in 1% osmium tetroxide in Millonig's buffer at room temperature for one hour. They are then washed briefly in a series of ethanol (50-100%), ten minutes at each step, followed by two additional periods of absolute ethanol (10 minutes each). […]"}}, "note": "Entries after “also recorded” stand apart in the source; their conditions may differ."}
{"compound": "poly-L-arginine [Mucomodulator A]", "values": [{"measurement": "mucociliary clearance rate", "setting": "[1]; 5 μl topical, 10^-8 to 10^-1 M, increasing applied concentration", "result": "significant increase"}]}
{"compound": "HMW dextran [XL “D”]", "values": [{"measurement": "TMV", "setting": "[2]; High = 0.1M aerosol", "result": "3.85 ± 2.2", "unit": "mm/min"}, {"measurement": "TMV", "setting": "[2]; Low = 0.001M aerosol", "result": "4.43 ± 3.83", "unit": "mm/min"}, {"measurement": "TMV", "setting": "[2]; Med = 0.01M aerosol", "result": "3.77 ± 1.65", "unit": "mm/min"}, {"measurement": "thread formation capability (a measure of elasticity) of the tracheal mucus", "setting": "[2]", "result": "increase"}]}
{"compound": "polymyxin B [reference compound]", "values": [{"measurement": "mucociliary clearance", "setting": "[1]; 5 μl topical, highest concentration", "result": "sustained decrease"}, {"measurement": "mucociliary clearance", "setting": "[1]; 5 μl topical, intermediate concentration", "result": "increase"}]}
{"compound": "[Na+].[Na+].[O-]B1OB2OB([O-])OB(O1)O2", "note": "[XL “B”, sodium tetraborate]", "values": [{"measurement": "amount of MS expelled from the SCM", "setting": "[3]; 1.5 μL added", "result": 47, "unit": "%"}, {"measurement": "amount of MS expelled from the SCM", "setting": "[3]; 150 μL added", "result": 96, "unit": "%"}, {"measurement": "elasticity relative to viscosity", "setting": "[4]", "result": "preferentially raises elasticity relative to viscosity"}, {"measurement": "mucociliary transport rate of treated mucus simulants (means)", "setting": "[5]", "result": "16-20 mm/min"}, {"measurement": "TMV", "setting": "[2]; High = 0.1M aerosol", "result": "4.3 ± 1.53", "unit": "mm/min"}, {"measurement": "TMV", "setting": "[2]; Low = 0.001M aerosol", "result": "3.88 ± 1.66", "unit": "mm/min"}, {"measurement": "TMV", "setting": "[2]; Med = 0.01M aerosol", "result": "4.96 ± 1.99", "unit": "mm/min"}, {"measurement": "thread formation capability (a measure of elasticity) of the tracheal mucus", "setting": "[2]", "result": "increase"}, {"measurement": "particles in the aerosolization pattern", "setting": "[6]", "result": "reduced to almost disappear"}]}
{"compound": "[Ca+2].[Cl-].[Cl-]", "note": "[CaCl2, calcium chloride]", "values": [{"measurement": "mucociliary transport time compared to Frog Ringers", "setting": "[1]; 5 μL topical, 30 s dispersion, 4 mm distance", "result": "no significant effect; also recorded: did not alter the mucus transit time"}, {"measurement": "effect on mucus on the surface of the palate (SE micrograph)", "setting": "[7]", "result": "causes “clumping” of the mucus"}]}
